The values that follow come from patent EP2667887B1, “PHARMACEUTICAL COMPOSITION COMPRISING THE PEPTIDE GLU-ASP-GLY AND USE FOR TREATING HELICOBACTER PYLORI INDUCED GASTRODUODENAL DISEASES” («Garmonia», Ltd., priority 2011, dated 2012).

A short description of data set [1]: Acute toxicity study, single administration. Conditions: mice, single intramuscular administration, 1-5 mg/kg; dose exceeds the therapeutic dose by more than 5000 times. The class given is in vivo, white mongrel male mice. On the procedure: General toxicity of peptide H-Glu-Asp-Gly-OH was studied in accordance with the requirements of "Manual for Experimental (Pre-Clinical) Study of New Pharmacological Substances" (2000): acute toxicity in case of a single administration of the preparation, as well as subacute and chronic toxicity in case of a long-term administration of the peptide.
Acute toxicity study was carried out on 66 white mongrel male mice with body weight 20-22 g. The animals were randomly subdivided into 6 equal groups. The preparation was administered to the animals once, intramuscularly in the doses of 1, 2, 3, 4, 5 mg/kg in 0,25 ml of sterile 0,9% NaCl solution. Control animals were treated with 0,9% NaCl solution in the same volume.

The subject of data set [2] is human gastric epithelium cells SGC7901. Nature of the data set: Effect on Helicobacter pylori-induced mitochondrial mechanisms of apoptosis in gastric epitheliocytes (mito-GFP confocal microscopy). As to conditions: peptide 10 µM 30 minutes before Helicobacter pylori (strain Cag J117), 7 hours. The class given is cell-based. On the procedure: To evaluate the biological activity and effects of peptide H-Glu-Asp-Gly-OH on mitochondrial mechanisms of apoptosis in gastric epitheliocytes, induced by Helicobacter pylori germs, human gastric epithelium cells SGC7901 were studied. The cells were cultivated at 37°C in a damp incubation medium containing 50 mL/L CO2 in DMEM (Dulbecco's Modified Eagle's Medium, ICN Biomedicals) and 10% calf embryonic serum. A preliminary separation of cells for passaging was carried out in the ratio of 1:3-1:5 using a mixture of 0.125% trypsin, 0.02M EDTA (ethylenediaminetetraacetic acid), 0.02% glucose dissolved in a phosphate buffer. The cells were placed on a 24-well plate in the amount of 10^6 cells per well. The cells were passaged in a cultivation medium for 5 days and then taken for study.
On the 5th day after the beginning of cell passaging the peptide H-Glu-Asp-Gly-OH in the dose of 10 µM was administered in the cultivation medium, and in 30 minutes of incubation the cells were taken for study. Klacid antibiotic (clarithromycin, Abbott) in the dose of 500 ng/mL was administered to the cultures in the same conditions as positive control. […]
The status of isolated mitochondria was evaluated using immunofluorescent confocal laser microscopy. […]
Confocal microscopy of mitochondria with optical density evaluation was performed in an inverted confocal microscope Olympus Fluoview CM FV300-IX70 using an apochromatic lens 606 UPlan (Olympus). A 488 nm excitation wave of argon laser was used in each chamber to specify mito-GFP fluorescence that verifies the structure of mitochondria.

As for “glutamyl-aspartyl-glycine [H-Glu-Asp-Gly-OH]”, the acute toxicity entry in data set [1] is recorded as “does not cause toxic reactions”. Besides, in data set [2] (control 2.57±0.23, H. pylori alone 0.35±0.05), the “mitochondrial GFP expression by optical density” value is reported as 2.48±0.17 conv. units. Also, the “mitochondrial GFP expression by expression area” value in data set [2] (control 3.42±0.19, H. pylori alone 0.63±0.03) was found to be 3.84±0.20%.
